Several values for one entry are separate records, joined by “and”; a condition that tells them apart may be missing. Equal entries are not always repeated.

The subject of the first test is NCI-H358 (K-Ras G12C). Description: CellTiter-Glo cell viability assay, NCI-H358. It counts as cell-based, human. Particulars: Homo sapiens, NCI-H358, Table 5; read-out: H358 Cell Viability assay data (K-Ras G12C, IC50). The method, then:
Note - The following protocol describes a procedure for monitoring cell viability of K-Ras mutant cancer cell lines in response to a compound of the invention. Other RAS isoforms may be employed, though the number of cells to be seeded will vary based on cell line used.
Test compounds (132.5 nL) were directly dispensed into the assay plates containing cells. […] On day 5, assay plates and their contents were equilibrated to room temperature for approximately 30 minutes. […] Luminescence was measured using the PerkinElmer Enspire. Data were normalized by the following: (Sample signal/Avg. DMSO)*100. The data were fit using a four-parameter logistic fit.
Consider `C=CC(=O)N1CC[C@H](C(=O)N(C)[C@H](C(=O)N[C@H]2Cc3cccc(c3)-c3ccc4c(c3)c(c(-c3cccnc3[C@H](C)OC)n4CC)CC(C)(C)COC(=O)[C@@H]3CCCN(N3)C2=O)C(C)C)C1` [Compound A114], for which the concentration for half-maximal inhibition (IC50) (as a rule, the concentration needed to halve the response being measured) fell in the range of 0.1 to 1 µM.

`CCn1c(-c2cccnc2[C@H](C)OC)c2c3cc(ccc31)-c1cccc(c1)C[C@H](NC(=O)[C@H](C1CCCC1)N(C)C(=O)[C@@H]1CN(C(=O)C#CC(C)(C)N(C)C)C[C@@H]1C)C(=O)N1CCC[C@H](N1)C(=O)OCC(C)(C)C2` (atropisomer, axis not shown) [Compound A391]: the IC50 is < 0.01 µM.

Still in this test, the particulars now being: Homo sapiens, NCI-H358, read-out: H358 Cell Viability assay data (K-Ras G12C, IC50, uM), Table 5.
On to `C=CC(=O)N1CC[C@H](C(=O)N(C)[C@H](C(=O)N[C@H]2Cc3cc(O)cc(c3)-c3ccc4c(c3)c(c(-c3cccnc3[C@H](CC)OC)n4CC)CC(C)(C)COC(=O)[C@@H]3CCCN(N3)C2=O)C(C)C)C1` (atropisomer, axis not shown) [Compound A181], for which the IC50 is < 0.01 µM.

Turning to `C=CC(=O)N1CCOC2CCN(C(=O)N(C)C(C(=O)NC3Cc4nc(cs4)-c4ccc5c(c4)c(c(-c4cccnc4C(C)OC)n5CC)CC(C)(C)COC(=O)C4CCCN(N4)C3=O)C(C)C)CC21` (stereo not shown) [Compound A596], the IC50 is < 0.01 µM.

`C=CC(=O)N1CC[C@H](C(=O)N(C)[C@H](C(=O)N[C@H]2Cc3cc(O)cc(c3)-c3ccc4c(c3)c(c(-c3cc(CN(C)C)cnc3COC)n4CC)CC(C)(C)COC(=O)[C@@H]3CCCN(N3)C2=O)C(C)C)C1` [Compound A149]: the IC50 is 0.01 to 0.1 µM.

In the case of `CCn1c(-c2cccnc2[C@H](C)OC)c2c3cc(ccc31)-c1cccc(c1)C[C@H](NC(=O)[C@H](C(C)C)N(C)C(=O)[C@H]1CCN(C(=O)C#CCN(C)C)C1)C(=O)N1CCC[C@H](N1)C(=O)OCC(C)(C)C2` (atropisomer, axis not shown) [Compound A121], the IC50 was < 0.01 µM.

`C=CS(=O)(=O)N1CC[C@H](C(=O)N(C)[C@H](C(=O)N[C@H]2Cc3cccc(c3)-c3ccc4c(c3)c(c(-c3cccnc3[C@H](C)OC)n4CC)CC(C)(C)COC(=O)[C@@H]3CCCN(N3)C2=O)C(C)C)C1` (atropisomer, axis not shown) [Compound A124]: the IC50 was < 0.01 µM.

In the case of `C=CC(=O)Nc1cnc(C(=O)N(C)[C@H](C(=O)N[C@H]2Cc3cccc(c3)-c3ccc4c(c3)c(c(-c3cccnc3[C@H](C)OC)n4CC)CC(C)(C)COC(=O)[C@@H]3CCCN(N3)C2=O)C(C)C)n1C` (atropisomer, axis not shown) [Compound A525], the IC50 is < 0.01 µM.

Take `CCn1c(-c2cnccc2COC)c2c3cc(ccc31)-c1ccnc(c1)C[C@H](NC(=O)[C@H](C(C)C)N(C)C(=O)[C@H]1CCN(C(=O)C#CCN(C)C)C1)C(=O)N1CCC[C@H](N1)C(=O)OCC(C)(C)C2` [Compound A130]: the IC50 lay within 0.01 to 0.1 µM.

Staying with this test, now noted: Table 5; read-out: H358 Cell Viability assay data (K-Ras G12C, IC50).
As for `C=CC(=O)N1CC2(CCN2C(=O)N(C)[C@H](C(=O)N[C@H]2Cc3cccc(c3)-c3ccc4c(c3)c(c(-c3cccnc3[C@H](C)OC)n4CC)CC(C)(C)COC(=O)[C@@H]3CCCN(N3)C2=O)C(C)C)C1` (atropisomer, axis not shown) [Compound A684], the IC50 was < 0.01 µM.

“(2R)-2-(((1-(4-(dimethylamino)-4-methylpent-2-ynoyl)azetidin-3-yl)oxy)methyl)-N-((6^3S,4S)-1^1-ethyl-1^2-(2-((S)-1-methoxyethyl)pyridin-3-yl)-10,10-dimethyl-5,7-dioxo-6^1,6^2,6^3,6^4,6^5,6^6-hexahydro-1^1H-8-oxa-1(5,3)-indola-6(1,3)-pyridazina-2(1,3)-benzenacycloundecaphane-4-yl)-3-methylbutanamide [Compound A316]”: the IC50 was < 0.01 µM.

Regarding `C=CC(=O)N1CC[C@H](C(=O)N(C)[C@H](C(=O)N[C@H]2Cc3cc(O)cc(c3)-c3ccc4c(c3)c(c(-c3ccccc3COC)n4CC)CC(C)(C)COC(=O)[C@@H]3CCCN(N3)C2=O)C2CCCC2)C1` [Compound A27], the IC50 was in the range of 0.01 to 0.1 µM.

In the case of `C=CC(=O)N1CC[C@H](C(=O)N(C)[C@H](C(=O)N[C@H]2Cc3cc(O)cc(c3)-c3ccc4c(c3)c(c(-c3cnccc3COC)n4CC)CC(C)(C)COC(=O)[C@@H]3CCCN(N3)C2=O)C(C)C)C1` [Compound A91], the IC50 was < 0.01 µM.

For `CCn1c(-c2cnccc2COC)c2c3cc(ccc31)-c1cc(O)cc(c1)C[C@H](NC(=O)[C@H](C(C)C)N(C)C(=O)[C@H]1CCN(C(=O)C#CCN(C)C)C1)C(=O)N1CCC[C@H](N1)C(=O)OCC(C)(C)C2` [Compound A88], the IC50 was < 0.01 µM.

Consider `C=CS(=O)(=O)N1CC[C@H](C(=O)N(C)[C@H](C(=O)N[C@H]2Cc3cc(O)cc(c3)-c3ccc4c(c3)c(c(-c3cccnc3COC)n4CC)CC(C)(C)COC(=O)[C@@H]3CCCN(N3)C2=O)C(C)C)C1` [Compound A69], for which the IC50 is 0.01 to 0.1 µM.

For `C=CC(=O)N1CC[C@H](C(=O)N(C)[C@H](C(=O)N[C@H]2Cc3cc(O)cc(c3)-c3ccc4c(c3)c(c(-c3ccc(N5CCN(C)CC5)nc3)n4CC)CC(C)(C)COC(=O)[C@@H]3CCCN(N3)C2=O)C(C)C)C1` [Compound A89, (2S)-N-[(8S,14S)-22-ethyl-4-hydroxy-18,18-dimethyl-21-[6-(4-methylpiperazin-1-yl)pyridin-3-yl]-9,15-dioxo-16-oxa-10,22,28-triazapentacyclo[18.5.2.1^2,^6.1^10,^14.0^23,^27]nonacosa-1(26),2,4,6(29),20,23(27),24-heptaen-8-yl]-3-methyl-2-{N-methyl-1-[(3S)-1-(prop-2-enoyl)pyrrolidin-3-yl]formamido}butanamide], the IC50 was in the range of 0.01 to 0.1 µM.

For the molecule `C=CC(=O)N1CC[C@H](C(=O)N(C)[C@H](C(=O)N[C@H]2Cc3cc(OC(=O)CN)cc(c3)-c3ccc4c(c3)c(c(-c3ccccc3CCOC)n4CC)CC(C)(C)COC(=O)[C@@H]3CCCN(N3)C2=O)C(C)C)C1` [Compound A8], the IC50 is 0.1 to 1 µM.

For the molecule `C=CC(=O)N1CC[C@H](C(=O)N(C)[C@H](C(=O)N[C@H]2Cc3cc(O)cc(c3)-c3ccc4c(c3)c(c(-c3ccc(CN5CCCC5)cc3)n4CC)CC(C)(C)COC(=O)[C@@H]3CCCN(N3)C2=O)C(C)C)C1` [Examples A10], the IC50 was 0.01 to 0.1 µM.

With `C=CC(=O)N1CC[C@H](C(=O)N(C)[C@H](C(=O)N[C@H]2Cc3cc(O)cc(c3)-c3ccc4c(c3)c(c(-c3cccnc3N3CC(OC)C3)n4CC)CC(C)(C)COC(=O)[C@@H]3CCCN(N3)C2=O)C(C)C)C1` [Compound A60], the IC50 lay within 0.01 to 0.1 µM.

Take `C=CC(=O)N1CC[C@H](C(=O)N(C)[C@H](C(=O)N[C@H]2Cc3cc(O)cc(c3)-c3ccc4c(c3)c(c(-c3c(F)cccc3CCOC)n4CC)CC(C)(C)COC(=O)[C@@H]3CCCN(N3)C2=O)C(C)C)C1` [Compound A25]: the IC50 lay within 0.1 to 1 µM.

Consider `C=CC(=O)N1CC[C@@]2(CCN([C@H](C(=O)N[C@H]3Cc4cc(O)cc(c4)-c4ccc5c(c4)c(c(-c4ccccc4CCOC)n5CC)CC(C)(C)COC(=O)[C@@H]4CCCN(N4)C3=O)C(C)C)C2=O)C1` [Compound A68], for which the IC50 lay in the range of 0.1 to 1 µM.

As for `C=CC(=O)N1CC[C@H](C(=O)N(C)[C@H](C(=O)N[C@H]2Cc3cc(O)cc(c3)-c3ccc4c(c3)c(c(-c3cccnc3CN(C)C)n4CC)CC(C)(C)COC(=O)[C@@H]3CCCN(N3)C2=O)C(C)C)C1` [Compound A92], the IC50 lay within 0.1 to 1 µM.

As to `CCn1c(-c2cncnc2C(C)C)c2c3cc(ccc31)-c1cc(O)cc(c1)C[C@H](NC(=O)[C@H](C(C)C)N(C)C(=O)[C@H]1CCN(C(=O)C#CCN(C)C)C1)C(=O)N1CCC[C@H](N1)C(=O)OCC(C)(C)C2` [Compound A155], the IC50 is < 0.01 µM and 0.01 to 0.1 µM.

With `C=CC(=O)N1CC[C@H](C(=O)N(C)[C@H](C(=O)N[C@H]2Cc3cc(O)cc(c3)-c3ccc4c(c3)c(c(-c3cccnc3COCC)n4CC)CC(C)(C)COC(=O)[C@@H]3CCCN(N3)C2=O)C(C)C)C1` [Compound A44], the IC50 fell in the range of 0.01 to 0.1 µM.

On to `C=CC(=O)N1CC[C@H](C(=O)N(C)[C@H](C(=O)N[C@H]2Cc3cc(O)cc(c3)-c3ccc4c(c3)c(c(-c3cnccc3[C@H](C)OC)n4CC)CC(C)(C)COC(=O)[C@@H]3CCCN(N3)C2=O)C(C)C)C1` [Compound A76], for which the IC50 is < 0.01 µM.

As to `CCn1c(-c2ccccc2CCOC)c2c3cc(ccc31)-c1cc(O)cc(c1)C[C@H](NC(=O)[C@H](C(C)C)N(C)C(=O)[C@H]1CCN(C(=O)C#CCN(C)C)C1)C(=O)N1CCC[C@H](N1)C(=O)OCC(C)(C)C2` [Compound A38], the IC50 was < 0.01 µM.

For the molecule `C=CC(=O)N1CC[C@H](C(=O)N(C)[C@H](C(=O)N[C@H]2Cc3cc(O)cc(c3)-c3ccc4c(c3)c(c(-c3ccc5c(c3)OCCN5C)n4CC)CC(C)(C)COC(=O)[C@@H]3CCCN(N3)C2=O)C(C)C)C1` [Compound A50], the IC50 was in the range of 0.1 to 1 µM.

For the molecule `CCn1c(-c2ccccc2CCOC)c2c3cc(ccc31)-c1cc(O)cc(c1)C[C@H](NC(=O)[C@H](C(C)C)N(C)C(=O)C1CCN(C(=O)/C=C/CN(C)C)CC1)C(=O)N1CCC[C@H](N1)C(=O)OCC(C)(C)C2` [Compound A19], the IC50 fell in the range of 0.1 to 1 µM.

Take `C=CC(=O)N1CC[C@H](C(=O)N(C)[C@H](C(=O)N[C@H]2Cc3cc(O)cc(c3)-c3ccc4c(c3)c(c(-c3ccc(CN5CC[C@@H](O)C5)cc3)n4CC)CC(C)(C)COC(=O)[C@@H]3CCCN(N3)C2=O)C(C)C)C1` [Examples A1]: the IC50 was 0.1 to 1 µM.

Turning to `C=CC(=O)N1CC[C@H](C(=O)N(C)[C@H](C(=O)N[C@H]2Cc3cc(O)cc(c3)-c3ccc4c(c3)c(c(-c3ccc(C5CCN(C)CC5)cc3)n4CC)CC(C)(C)COC(=O)[C@@H]3CCCN(N3)C2=O)C(C)C)C1` [Compound A39], the IC50 lay in the range of 0.01 to 0.1 µM.

In the case of `C=CC(=O)N1CC[C@H](C(=O)N(C)[C@H](C(=O)N[C@H]2Cc3cc(O)cc(c3)-c3ccc4c(c3)c(c(-c3cncc(C#N)c3)n4CC)CC(C)(C)COC(=O)[C@@H]3CCCN(N3)C2=O)C(C)C)C1` [Compound A62], the IC50 fell in the range of 0.01 to 0.1 µM.

Source of the values: EP4806900A2, “RAS INHIBITORS” (Revolution Medicines, Inc., priority 2019, dated 2021).
